Reference: the NIST ThermoML archive (doi:10.1016/j.fluid.2015.03.048)

Assay: xn = mol fraction of the nth substance listed
Conditions: 303.15 K, 100 kPa, Liquid; for viscosity: Capillary tube (Ostwald / Ubbelohde) method; for excess molar volume: Direct dilatometry; for speed of sound: Frequency=3 MHz, Sing-around technique in a fixed-path interferometer; for mass density: Pycnometric method

Clc1cccc(Cl)c1 [1,3-dichlorobenzene] + CC(=O)N(C)C
Conditions	excess molar volume [m3/mol]	mass density [kg/m3]	speed of sound [m/s]	viscosity [mPa·s]
x2 = 0.0879	–	1248.69	1277	–
x2 = 0.1045	-3e-08	–	–	1.024
x2 = 0.1294	–	1235.21	1284	–
x2 = 0.1525	-4.5e-08	–	–	1.023
x2 = 0.1659	–	1223.28	1290	–
x2 = 0.1941	-5.4e-08	–	–	1.022
x2 = 0.2267	–	1203.33	1301	–
x2 = 0.262	-6.7e-08	–	–	1.021
x2 = 0.2831	–	1184.73	1312	–
x2 = 0.3235	-7.5e-08	–	–	1.02
x2 = 0.3601	–	1159.16	1326	–
x2 = 0.4052	-7.7e-08	–	–	1.019
x2 = 0.42	–	1139.1	1337	–
x2 = 0.4672	-7.3e-08	–	–	1.018
x2 = 0.4742	–	1120.88	1347	–
x2 = 0.522	-6.6e-08	–	–	1.017
x2 = 0.6086	–	1075.37	1372	–
x2 = 0.6531	-4e-08	–	–	1.016
x2 = 0.6847	–	1049.44	1385	–
x2 = 0.7245	-2.5e-08	–	–	1.015
x2 = 0.7295	–	1034.11	1393	–
x2 = 0.7656	-1.4e-08	–	–	1.014
x2 = 0.7721	–	1019.55	1400	–
x2 = 0.804	-7e-09	–	–	1.013
x2 = 0.8389	–	996.66	1413	–
x2 = 0.8631	2e-09	–	–	1.011
x2 = 0.8967	–	969.13	1429	–
x2 = 0.9131	–	–	–	1.007
x2 = 0.969	–	945.84	1437	–
x2 = 0.9743	–	–	–	0.952

Cc1ccccc1Cl [2-chlorotoluene] + CC(=O)N(C)C
Conditions	excess molar volume [m3/mol]	mass density [kg/m3]	speed of sound [m/s]	viscosity [mPa·s]
x2 = 0.1	–	1059.98	1305	–
x2 = 0.106	-2e-08	–	–	0.884
x2 = 0.1231	-2.2e-08	–	–	0.883
x2 = 0.1527	–	1053.19	1316	–
x2 = 0.1854	-3e-08	–	–	0.882
x2 = 0.1862	–	1048.87	1322	–
x2 = 0.2241	-3.5e-08	1043.95	1330	0.881
x2 = 0.2585	–	1039.48	1337	–
x2 = 0.2672	-3.9e-08	–	–	0.88
x2 = 0.3057	-4.3e-08	–	–	0.879
x2 = 0.3232	–	1031.07	1350	–
x2 = 0.3545	–	1026.99	1356	–
x2 = 0.3762	-4.9e-08	–	–	0.878
x2 = 0.4095	-5.1e-08	–	–	0.877
x2 = 0.4673	–	1012.24	1378	–
x2 = 0.503	–	1007.54	1384	–
x2 = 0.5255	-5.5e-08	–	–	0.876
x2 = 0.5483	–	1001.55	1391	–
x2 = 0.561	-5.5e-08	–	–	0.875
x2 = 0.6052	-5.2e-08	–	–	0.874
x2 = 0.6722	–	985.14	1407	–
x2 = 0.7214	-4.2e-08	–	–	0.873
x2 = 0.7275	–	977.79	1415	–
x2 = 0.7625	–	973.13	1416	–
x2 = 0.7712	-3.6e-08	–	–	0.872
x2 = 0.8021	-3.2e-08	–	–	0.871
x2 = 0.8525	–	961.13	1428	–
x2 = 0.8795	-2.3e-08	–	–	0.869

Cc1ccccc1[N+](=O)[O-] [2-nitrotoluene] + CC(=O)N(C)C
Conditions	excess molar volume [m3/mol]	mass density [kg/m3]	speed of sound [m/s]	viscosity [mPa·s]
x2 = 0.0824	–	1135.81	2046	–
x2 = 0.1025	1.4e-08	–	–	1.905
x2 = 0.124	–	1126.98	2006	–
x2 = 0.1501	–	1121.45	1978	–
x2 = 0.1527	2e-08	–	–	1.877
x2 = 0.1784	–	1115.46	1956	–
x2 = 0.1835	2.5e-08	–	–	1.857
x2 = 0.2165	2.8e-08	–	–	1.835
x2 = 0.2318	–	1104.13	1897	–
x2 = 0.2579	–	1098.58	1874	–
x2 = 0.2775	3.5e-08	–	–	1.788
x2 = 0.3067	4e-08	–	–	1.763
x2 = 0.3103	–	1087.46	1817	–
x2 = 0.3637	–	1076.12	1773	–
x2 = 0.3641	4.7e-08	–	–	1.715
x2 = 0.4133	–	1065.58	1734	–
x2 = 0.4211	5.3e-08	–	–	1.663
x2 = 0.466	–	1054.4	1696	–
x2 = 0.4727	5.8e-08	–	–	1.613
x2 = 0.5262	6e-08	–	–	1.559
x2 = 0.5465	–	1037.36	1650	–
x2 = 0.6053	5.8e-08	–	–	1.474
x2 = 0.6694	–	1011.4	1592	–
x2 = 0.7204	4.5e-08	–	–	1.336
x2 = 0.7773	–	988.58	1547	–
x2 = 0.8162	3.2e-08	–	–	1.203
x2 = 0.8701	–	968.9	1506	–
x2 = 0.895	2e-08	–	–	1.074
x2 = 0.9584	–	950.18	1463	–
x2 = 0.967	7e-09	–	–	0.937

Cc1cccc(Cl)c1 [3-chlorotoluene] + CC(=O)N(C)C
Conditions	excess molar volume [m3/mol]	mass density [kg/m3]	speed of sound [m/s]	viscosity [mPa·s]
x2 = 0.0671	–	1063.49	1298	–
x2 = 0.0838	-1e-08	–	–	0.783
x2 = 0.1003	–	1059.19	1307	–
x2 = 0.1242	-1.4e-08	–	–	0.786
x2 = 0.1481	–	1053.01	1317	–
x2 = 0.1735	–	1049.73	1322	–
x2 = 0.1811	-2e-08	–	–	0.789
x2 = 0.2107	-2.3e-08	–	–	0.805
x2 = 0.2255	–	1042.98	1333	–
x2 = 0.2658	–	1037.75	1343	–
x2 = 0.2702	-2.7e-08	–	–	0.811
x2 = 0.3152	-3e-08	–	–	0.817
x2 = 0.3343	–	1028.85	1356	–
x2 = 0.3595	–	1025.57	1362	–
x2 = 0.3897	-3.5e-08	–	–	0.823
x2 = 0.4165	-3.6e-08	–	–	0.828
x2 = 0.4436	–	1014.58	1378	–
x2 = 0.4865	–	1008.96	1385	–
x2 = 0.5035	-3.7e-08	–	–	0.832
x2 = 0.5465	-3.6e-08	–	–	0.837
x2 = 0.5673	–	998.38	1399	–
x2 = 0.6251	-3.4e-08	–	–	0.841
x2 = 0.6638	–	985.69	1412	–
x2 = 0.7042	–	980.38	1416	–
x2 = 0.7152	-2.8e-08	–	–	0.846
x2 = 0.7517	-2.5e-08	–	–	0.85
x2 = 0.7822	–	970.1	1424	–
x2 = 0.8204	-1.9e-08	–	–	0.855
x2 = 0.9182	–	952.18	1440	–
x2 = 0.9345	-9e-09	–	–	0.86
